ChEMBL document CHEMBL5715949, “Discovery of a selective irreversible BMX inhibitor for prostate cancer” (ACS Chem Biol, 2013)
Active and inactive are the calls of the source. The rule behind the calls is not given here.

Tests used:
[1] = molecular target: BMP-2-inducible protein kinase (Homo sapiens) (UniProt Q9NSY1); assay: Inhibition of BIKE (unknown origin) assessed as remaining activity at 1 uM by Kinome scan method relative to control
[2] = test system: VCaP; assay: Antiproliferative activity against human VCaP cells assessed growth inhibition incubated for 2 to 5 days by CellTiter-Glo assay; type: functional; conditions: time 2-5 day
[3] = test system: RV-1; assay: Induction of apoptosis in human RV-1 cells assessed as increase in cleaved caspase-3 protein expression at 5 uM incubated for 3 days by immunostaining analysis; type: functional, cell-based; conditions: time 3.0 day
[4] = molecular target: Rho-associated protein kinase 2 (Homo sapiens) (UniProt O75116); assay: Inhibition of ROCK2 (unknown origin) assessed as remaining activity at 1 uM by Kinome scan method relative to control
[5] = molecular target: Activin receptor type-1B (Homo sapiens) (UniProt P36896); assay: Inhibition of ACVR1B (unknown origin) assessed as remaining activity at 1 uM by Kinome scan method relative to control
Sequence of Activin receptor type-1B (Homo sapiens) (P36896 whole entry): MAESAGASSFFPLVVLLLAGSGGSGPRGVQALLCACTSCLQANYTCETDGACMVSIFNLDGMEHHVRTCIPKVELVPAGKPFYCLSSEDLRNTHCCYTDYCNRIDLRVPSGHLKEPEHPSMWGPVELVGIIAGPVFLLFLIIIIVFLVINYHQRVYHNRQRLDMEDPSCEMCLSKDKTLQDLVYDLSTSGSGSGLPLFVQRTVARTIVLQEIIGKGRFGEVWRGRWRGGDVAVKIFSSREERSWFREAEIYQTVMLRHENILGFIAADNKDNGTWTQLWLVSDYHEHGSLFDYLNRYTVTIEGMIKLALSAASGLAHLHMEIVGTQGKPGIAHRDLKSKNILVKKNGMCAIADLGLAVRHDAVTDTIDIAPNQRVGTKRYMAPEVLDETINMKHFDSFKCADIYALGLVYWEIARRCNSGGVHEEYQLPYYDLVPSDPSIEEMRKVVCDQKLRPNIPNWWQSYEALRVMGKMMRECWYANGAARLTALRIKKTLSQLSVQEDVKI

[6] = molecular target: Serine/threonine-protein kinase MAK (Homo sapiens) (UniProt P20794); assay: Inhibition of MAK (unknown origin) assessed as remaining activity at 1 uM by Kinome scan method relative to control
Sequence of Serine/threonine-protein kinase MAK (Homo sapiens) (P20794 whole entry): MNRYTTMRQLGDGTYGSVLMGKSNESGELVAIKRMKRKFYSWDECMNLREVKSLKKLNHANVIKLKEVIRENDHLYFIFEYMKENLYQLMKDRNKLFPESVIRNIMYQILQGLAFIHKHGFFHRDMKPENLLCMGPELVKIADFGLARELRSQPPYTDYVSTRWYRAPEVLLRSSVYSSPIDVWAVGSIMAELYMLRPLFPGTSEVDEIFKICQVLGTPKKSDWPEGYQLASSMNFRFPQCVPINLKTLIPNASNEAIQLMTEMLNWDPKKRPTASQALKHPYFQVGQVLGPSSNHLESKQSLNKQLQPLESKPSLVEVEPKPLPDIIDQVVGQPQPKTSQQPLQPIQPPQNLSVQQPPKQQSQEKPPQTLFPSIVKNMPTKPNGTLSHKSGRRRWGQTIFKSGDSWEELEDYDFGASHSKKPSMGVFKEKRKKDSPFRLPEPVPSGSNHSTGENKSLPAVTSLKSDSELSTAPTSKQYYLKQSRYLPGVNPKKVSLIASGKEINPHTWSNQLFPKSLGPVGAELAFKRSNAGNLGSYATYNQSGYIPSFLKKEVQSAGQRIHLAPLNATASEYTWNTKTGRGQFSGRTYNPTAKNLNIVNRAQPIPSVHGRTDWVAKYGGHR

[7] = molecular target: STE20-like serine/threonine-protein kinase (Homo sapiens) (UniProt Q9H2G2); assay: Inhibition of SLK (unknown origin) assessed as remaining activity at 1 uM by Kinome scan method relative to control
[8] = molecular target: Myosin light chain kinase family member 4 (Homo sapiens) (UniProt Q86YV6); assay: Inhibition of MYLK4 (unknown origin) assessed as remaining activity at 1 uM by Kinome scan method relative to control
[9] = test system: Mast/stem cell growth factor receptor Kit (Homo sapiens), P10721 [A829P]; assay: Inhibition of KIT A829P mutant (unknown origin) assessed as remaining activity at 1 uM by Kinome scan method relative to control
[10] = molecular target: Serine/threonine-protein kinase ULK3 (Homo sapiens) (UniProt Q6PHR2); assay: Inhibition of ULK3 (unknown origin) assessed as remaining activity at 1 uM by Kinome scan method relative to control
[11] = molecular target: Mitogen-activated protein kinase 12 (Homo sapiens) (UniProt P53778); assay: Inhibition of P38gamma (unknown origin) assessed as remaining activity at 1 uM by Kinome scan method relative to control
[12] = molecular target: Mitogen-activated protein kinase kinase kinase 12 (Homo sapiens) (UniProt Q12852); assay: Inhibition of DLK (unknown origin) assessed as remaining activity at 1 uM by Kinome scan method relative to control
[13] = molecular target: Myotonin-protein kinase (Homo sapiens) (UniProt Q09013); assay: Inhibition of DMPK (unknown origin) assessed as remaining activity at 1 uM by Kinome scan method relative to control
[14] = molecular target: Cytoplasmic tyrosine-protein kinase BMX (Homo sapiens, UniProt P51813); assay: Inhibition of Flag-tagged BMX (unknown origin) expressed in HEK293T cells pre incubated for 30 mins followed by ATP addition and measured after 20 mins by immunoprecipitate assay; type: cell-based
Sequence of Cytoplasmic tyrosine-protein kinase BMX (P51813 whole entry): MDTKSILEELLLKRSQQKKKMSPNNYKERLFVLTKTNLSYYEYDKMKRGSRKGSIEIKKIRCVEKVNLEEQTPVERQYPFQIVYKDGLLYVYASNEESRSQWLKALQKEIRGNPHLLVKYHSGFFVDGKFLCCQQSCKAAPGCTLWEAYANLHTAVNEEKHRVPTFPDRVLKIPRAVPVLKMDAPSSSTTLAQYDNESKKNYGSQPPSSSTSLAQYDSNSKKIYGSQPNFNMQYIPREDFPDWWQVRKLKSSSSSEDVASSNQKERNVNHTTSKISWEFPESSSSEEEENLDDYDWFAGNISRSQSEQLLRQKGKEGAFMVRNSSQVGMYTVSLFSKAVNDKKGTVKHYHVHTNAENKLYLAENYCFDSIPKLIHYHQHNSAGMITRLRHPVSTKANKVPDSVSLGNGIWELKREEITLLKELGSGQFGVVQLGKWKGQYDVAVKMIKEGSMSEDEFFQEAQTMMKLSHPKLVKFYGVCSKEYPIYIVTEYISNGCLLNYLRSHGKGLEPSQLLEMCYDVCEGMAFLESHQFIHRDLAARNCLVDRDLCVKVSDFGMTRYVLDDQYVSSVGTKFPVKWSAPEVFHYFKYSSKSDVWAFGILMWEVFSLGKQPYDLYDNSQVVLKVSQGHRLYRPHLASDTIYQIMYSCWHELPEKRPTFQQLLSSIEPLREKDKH

[15] = Inhibition of PI3K/AKT/mTOR signalling pathway in human RV-1 cells assessed as decrease in S6K phosphorylation at T389 residue at 2.5 uM incubated for 5 days in presence of MK2206 by immunoblot analysis; type: cell-based; conditions: time 5.0 day
[16] = test system: Tyrosine-protein kinase ABL1 (Homo sapiens), P00519 [T315I]; assay: Inhibition of ABL1 T315I mutant (unknown origin) assessed as remaining activity at 1 uM by Kinome scan method relative to control
[17] = test system: RV-1; assay: Antiproliferative activity against human RV-1 cells assessed as reduction in cell viability at 500 to 2500 nM incubated for 5 days in presence of erlotinib by CellTiter-Glo assay; type: functional, cell-based; conditions: dose 500-2500 nM, time 5.0 day
[18] = test system: BaF3; assay: Antiproliferative activity against mouse BaF3 cells expressing TEL-fused JAK1 assessed growth inhibition incubated for 2 to 5 days by CellTiter-Glo assay; type: functional; conditions: time 2-5 day
[19] = molecular target: Serine/threonine-protein kinase Nek3 (Homo sapiens) (UniProt P51956); assay: Inhibition of NEK3 (unknown origin) assessed as remaining activity at 1 uM by Kinome scan method relative to control
Sequence of Serine/threonine-protein kinase Nek3 (Homo sapiens) (P51956 whole entry): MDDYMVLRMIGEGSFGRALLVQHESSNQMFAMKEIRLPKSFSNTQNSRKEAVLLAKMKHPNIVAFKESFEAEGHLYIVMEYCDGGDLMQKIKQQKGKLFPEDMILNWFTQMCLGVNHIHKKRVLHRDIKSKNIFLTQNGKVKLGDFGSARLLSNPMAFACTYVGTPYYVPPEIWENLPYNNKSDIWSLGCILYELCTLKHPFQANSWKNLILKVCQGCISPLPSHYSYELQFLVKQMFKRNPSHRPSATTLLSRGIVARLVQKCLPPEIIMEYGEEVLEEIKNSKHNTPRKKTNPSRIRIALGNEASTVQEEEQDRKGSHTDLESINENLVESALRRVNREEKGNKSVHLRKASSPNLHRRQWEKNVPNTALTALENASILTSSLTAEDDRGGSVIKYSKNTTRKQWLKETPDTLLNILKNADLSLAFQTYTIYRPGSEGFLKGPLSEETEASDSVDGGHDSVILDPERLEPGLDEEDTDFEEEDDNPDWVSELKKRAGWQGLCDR

[20] = molecular target: Serine/threonine-protein kinase RIO3 (Homo sapiens) (UniProt O14730); assay: Inhibition of RIOK3 (unknown origin) assessed as remaining activity at 1 uM by Kinome scan method relative to control
[21] = test system: Receptor-type tyrosine-protein kinase FLT3 (Homo sapiens), P36888 [UNDEFINED MUTATION]; assay: Inhibition of FLT3 ITD mutant (unknown origin) assessed as remaining activity at 1 uM by Kinome scan method relative to control
[22] = molecular target: Vascular endothelial growth factor receptor 3 (Homo sapiens) (UniProt P35916); assay: Inhibition of FLT4 (unknown origin) assessed as remaining activity at 1 uM by Kinome scan method relative to control
[23] = molecular target: Fibroblast growth factor receptor 2 (Homo sapiens) (UniProt P21802); assay: Inhibition of FGFR2 (unknown origin) assessed as remaining activity at 1 uM by Kinome scan method relative to control
[24] = molecular target: Serine/threonine-protein kinase PAK 5 (Homo sapiens) (UniProt Q9P286); assay: Inhibition of PAK7 (unknown origin) assessed as remaining activity at 1 uM by Kinome scan method relative to control
[25] = molecular target: Tyrosine-protein kinase JAK1 (Homo sapiens) (UniProt P23458); assay: Inhibition of JAK1 JH2 domain (unknown origin) assessed as remaining activity at 1 uM by Kinome scan method relative to control
Sequence of Tyrosine-protein kinase JAK1 (Homo sapiens) (P23458 whole entry, the tested form may be a part): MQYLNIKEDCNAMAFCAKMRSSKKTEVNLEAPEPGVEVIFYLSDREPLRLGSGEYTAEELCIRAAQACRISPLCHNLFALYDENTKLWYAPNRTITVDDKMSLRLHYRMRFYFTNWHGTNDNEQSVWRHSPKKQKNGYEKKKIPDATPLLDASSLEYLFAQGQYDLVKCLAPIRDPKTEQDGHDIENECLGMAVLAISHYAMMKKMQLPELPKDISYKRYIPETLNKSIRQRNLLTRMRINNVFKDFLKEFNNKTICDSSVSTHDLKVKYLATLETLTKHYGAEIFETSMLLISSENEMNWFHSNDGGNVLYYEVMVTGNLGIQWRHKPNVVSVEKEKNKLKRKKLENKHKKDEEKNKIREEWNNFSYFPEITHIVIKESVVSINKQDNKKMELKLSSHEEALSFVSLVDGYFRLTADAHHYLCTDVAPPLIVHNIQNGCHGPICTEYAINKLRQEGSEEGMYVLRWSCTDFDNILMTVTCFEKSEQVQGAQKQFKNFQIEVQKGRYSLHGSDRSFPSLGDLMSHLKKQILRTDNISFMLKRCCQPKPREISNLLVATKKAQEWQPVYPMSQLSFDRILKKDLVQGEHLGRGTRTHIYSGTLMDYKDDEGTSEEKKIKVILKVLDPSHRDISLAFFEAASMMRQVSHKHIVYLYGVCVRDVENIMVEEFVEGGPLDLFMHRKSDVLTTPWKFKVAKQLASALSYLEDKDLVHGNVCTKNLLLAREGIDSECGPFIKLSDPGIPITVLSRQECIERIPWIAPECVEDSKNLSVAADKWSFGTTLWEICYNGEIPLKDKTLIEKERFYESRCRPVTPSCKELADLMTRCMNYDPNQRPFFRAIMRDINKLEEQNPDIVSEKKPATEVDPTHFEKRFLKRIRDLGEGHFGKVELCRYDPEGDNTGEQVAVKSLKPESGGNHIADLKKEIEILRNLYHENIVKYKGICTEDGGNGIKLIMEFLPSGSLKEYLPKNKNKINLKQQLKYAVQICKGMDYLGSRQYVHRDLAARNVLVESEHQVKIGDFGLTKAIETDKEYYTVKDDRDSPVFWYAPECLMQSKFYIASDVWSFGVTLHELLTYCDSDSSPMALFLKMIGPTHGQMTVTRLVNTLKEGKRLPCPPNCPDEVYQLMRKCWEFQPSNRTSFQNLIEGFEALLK

[26] = test system: RV-1; assay: Antiproliferative activity against human RV-1 cells assessed as reduction in cell viability at 500 to 2500 nM incubated for 5 days in presence of AZD8055 by CellTiter-Glo assay; type: functional, cell-based; conditions: dose 500-2500 nM, time 5.0 day
[27] = molecular target: Insulin receptor (Homo sapiens) (UniProt P06213); assay: Inhibition of INSR (unknown origin) assessed as remaining activity at 1 uM by Kinome scan method relative to control
[28] = test system: RV-1; assay: Antiproliferative activity against human RV-1 cells assessed as reduction in cell viability at 500 to 2500 nM incubated for 5 days in presence of GDC0941 by CellTiter-Glo assay; type: functional, cell-based; conditions: dose 500-2500 nM, time 5.0 day
[29] = molecular target: 5'-AMP-activated protein kinase catalytic subunit alpha-2 (Homo sapiens) (UniProt P54646); assay: Inhibition of AMPK-alpha2 (unknown origin) assessed as remaining activity at 1 uM by Kinome scan method relative to control
[30] = molecular target: Dual specificity protein kinase CLK4 (Homo sapiens) (UniProt Q9HAZ1); assay: Inhibition of CLK4 (unknown origin) assessed as remaining activity at 1 uM by Kinome scan method relative to control
[31] = molecular target: MAP/microtubule affinity-regulating kinase 3 (Homo sapiens) (UniProt P27448); assay: Inhibition of MARK3 (unknown origin) assessed as remaining activity at 1 uM by Kinome scan method relative to control
[32] = molecular target: Serine/threonine-protein kinase Nek2 (Homo sapiens) (UniProt P51955); assay: Inhibition of NEK2 (unknown origin) assessed as remaining activity at 1 uM by Kinome scan method relative to control
Sequence of Serine/threonine-protein kinase Nek2 (Homo sapiens) (P51955 whole entry): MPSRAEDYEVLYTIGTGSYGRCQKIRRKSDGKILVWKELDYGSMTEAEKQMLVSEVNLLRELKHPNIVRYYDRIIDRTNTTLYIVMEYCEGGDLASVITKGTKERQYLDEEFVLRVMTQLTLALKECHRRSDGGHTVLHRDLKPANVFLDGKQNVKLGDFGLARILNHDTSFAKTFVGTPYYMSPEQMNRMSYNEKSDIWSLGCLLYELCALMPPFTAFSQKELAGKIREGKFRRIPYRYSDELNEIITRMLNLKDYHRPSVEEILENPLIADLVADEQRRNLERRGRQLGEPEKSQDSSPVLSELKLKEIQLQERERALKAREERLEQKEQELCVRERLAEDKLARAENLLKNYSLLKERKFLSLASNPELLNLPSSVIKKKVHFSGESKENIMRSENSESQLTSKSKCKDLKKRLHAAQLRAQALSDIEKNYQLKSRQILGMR

Sequence of BMP-2-inducible protein kinase (Homo sapiens) (Q9NSY1 whole entry, looked up): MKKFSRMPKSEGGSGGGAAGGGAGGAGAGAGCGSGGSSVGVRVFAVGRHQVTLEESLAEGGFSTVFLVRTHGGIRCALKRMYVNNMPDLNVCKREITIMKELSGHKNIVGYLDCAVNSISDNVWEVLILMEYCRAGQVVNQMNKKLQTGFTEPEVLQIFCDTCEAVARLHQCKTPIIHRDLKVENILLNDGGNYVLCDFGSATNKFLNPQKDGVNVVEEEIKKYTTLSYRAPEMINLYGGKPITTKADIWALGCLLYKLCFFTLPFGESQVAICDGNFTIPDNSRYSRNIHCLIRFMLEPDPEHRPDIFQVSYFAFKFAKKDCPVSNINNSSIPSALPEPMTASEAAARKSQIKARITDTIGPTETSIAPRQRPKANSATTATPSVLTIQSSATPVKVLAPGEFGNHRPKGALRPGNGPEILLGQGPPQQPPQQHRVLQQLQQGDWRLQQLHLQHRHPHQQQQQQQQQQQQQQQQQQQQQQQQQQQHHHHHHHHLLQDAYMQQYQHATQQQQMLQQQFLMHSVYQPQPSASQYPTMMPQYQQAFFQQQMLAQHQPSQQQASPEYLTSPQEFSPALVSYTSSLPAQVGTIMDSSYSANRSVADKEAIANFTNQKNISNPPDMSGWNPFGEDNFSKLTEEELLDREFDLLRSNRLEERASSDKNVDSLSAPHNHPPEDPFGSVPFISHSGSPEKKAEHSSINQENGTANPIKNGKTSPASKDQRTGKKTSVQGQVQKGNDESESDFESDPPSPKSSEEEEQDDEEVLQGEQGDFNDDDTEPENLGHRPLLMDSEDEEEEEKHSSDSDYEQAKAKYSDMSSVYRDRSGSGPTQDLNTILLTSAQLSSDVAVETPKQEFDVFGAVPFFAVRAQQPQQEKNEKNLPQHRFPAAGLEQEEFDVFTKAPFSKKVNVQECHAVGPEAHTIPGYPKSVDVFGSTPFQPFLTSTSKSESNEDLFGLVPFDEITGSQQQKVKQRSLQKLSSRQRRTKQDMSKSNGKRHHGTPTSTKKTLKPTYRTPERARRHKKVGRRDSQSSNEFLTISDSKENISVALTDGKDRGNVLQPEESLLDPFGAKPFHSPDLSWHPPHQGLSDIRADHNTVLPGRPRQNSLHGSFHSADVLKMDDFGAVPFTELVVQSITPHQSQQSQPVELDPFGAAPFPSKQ

C=CC(=O)Nc1cc(-n2c(=O)ccc3cnc4ccc(-c5ccc(NS(C)(=O)=O)cc5)cc4c32)ccc1C
Activity [1]: 76%
GI50 [2]: 2.46 µM
Activity [3]: Active
Activity [4]: 87%
Activity [5]: 84%
Activity [6]: 70%
Activity [7]: 59%
Activity [8]: 96%
Activity [9]: 74%
Activity [10]: 80%
Activity [11]: 72%
Activity [12]: 70%
Activity [13]: 91%
IC50 [14]: 0.138 µM
inhibition [15]: Active
Activity [16]: 87%
Activity [17]: Active
GI50 [18]: 4.92 µM
Activity [19]: 98%
Activity [20]: 55%
Activity [21]: 99%
Activity [22]: 72%
Activity [23]: 96%
Activity [24]: 98%
Activity [25]: 99%
Activity [26]: Active
Activity [27]: 93%
Activity [28]: Active
Activity [29]: 92%
Activity [30]: 99%
Activity [31]: 75%
Activity [32]: 79%
